From US5045222A, “Use of triacylated ethanolamines as liquid, water-miscible peroxide activators” (Hoechst Aktiengesellschaft, priority 1988, dated 1991)
Blank lines part the entries; values can stand above or below the compound they belong to.

Assays:
[1] = Wash tests in Launder-O-meter at 60° C., tea stain
[2] = Washing tests in Launder-O-meter at room temperature, tea stain; conditions: 25° C.
[3] = Perhydrolysis rate of dissolved activator (titration of total active oxygen and peracid); conditions: for Perhydrolysis rate / release of peracid: in words, with hydrogen peroxide or percompounds; for time required for 90% conversion of activator: predissolved activator
Description: The experimental determination of the perhydrolysis rate of the activators TAEA (triacetylethanolamine), TAED (tetraacetylethylenediamine) and isonobs (sodium isononanoyloxybenzenesulfonate) was carried out under wash conditions in a 2 1 beaker in a thermostat. An electrical stirrer ensured uniform stirring of a 2 percent strength solution of an IEC standard detergent composition, to which perborate had been added together with 20 ml of a cherry juice solution as a bleachable stain.
The activators were predissolved in a little water and added to the abovementioned temperature controlled washing liquor. At each set time interval (1-5 minutes) a 50 ml sample was removed and titrated for total active oxygen and peracid.
pH dependence of perhydrolysis of dissolved bleach activators at 22° C.; time required [min] for 90% conversion of activator: […]

[4] = Determination of the water solubility of activators; assay type: physicochemical; conditions: for Water solubility / miscibility with water (words): in words, temperature not stated
Description: The water solubility of N,N,O-triacetylethanolamine (TAEA) and ethylidene benzoate acetate (EBA) was determined by known methods.

[5] = background discussion; cited from earlier work

Compound: sodium perborate [PB]
Reflectance values ([1]; tea stain, 30 minutes, 25 mg active oxygen per liter, 1.5 g IEC basic washing powder per liter): 62.9
Reflectance ([2]; tea stain, 15 minutes, 3% activator and 10% sodium perborate): 52.8

Water solubility (infinite, unit not given) ([4]; 23° C.): .infin.
Water solubility (infinite, unit not given) ([4]; 37° C.): .infin.
Compound: CC(=O)OCCN(C(C)=O)C(C)=O [TAEA, N,N,O-triacetylethanolamine]
bleaching performance ([1]; tea and red wine stains): superior in bleaching performance to previously known EDA and to non-liquid DALEA
bleaching effect ([2]; tea and red wine stains): superior bleaching effect
Perhydrolysis rate / release of peracid [3]: releases one mole of peracetic acid very rapidly, in fact as rapidly as predissolved TAED
Perhydrolysis rate / release of peracid ([3]; listed as Triacetylethanolamine (TAEA)): readily reacts in aqueous solution with hydrogen peroxide or inorganic persalts to form peracetic acid
time required for 90% conversion of activator ([3]; pH 9, 22° C.): 12 min
time required for 90% conversion of activator ([3]; pH 10, 22° C.): 7 min
time required for 90% conversion of activator ([3]; pH 11, 22° C.): 1 min
Water solubility / miscibility with water (words) [4]: complete miscibility of the compound with water
Water solubility / miscibility with water (words) ([4]; listed as triacetylethanolamine): has the best water solubility and is miscible with water in any proportion

Compound: CC(=O)N(CCN(C(C)=O)C(C)=O)C(C)=O [TAED, tetraacetylethylenediamine]
time required for 90% conversion of activator ([3]; pH 9, 22° C.): 15 min
time required for 90% conversion of activator ([3]; pH 10, 22° C.): 7 min
time required for 90% conversion of activator ([3]; pH 11, 22° C.): 1 min

Compound: CC(CC(=O)Oc1ccc(S(=O)(=O)[O-])cc1)CC(C)(C)C.[Na+] (stereo not shown) [Isonobs, sodium isononanoyloxybenzenesulfonate]
time required for 90% conversion of activator ([3]; pH 9, 22° C.): > 30 min
time required for 90% conversion of activator ([3]; pH 10, 22° C.): 11 min
time required for 90% conversion of activator ([3]; pH 11, 22° C.): 1.5 min

Water solubility ([4]; 23° C.): 700 µg/mL
Water solubility ([4]; 37° C.): 800 µg/mL
Compound: CC(=O)OC(C)OC(=O)c1ccccc1 (stereo not shown) [EBA, ethylidene benzoate acetate]
Solubility in water (words, prior-art activator) [5]: limited solubility in water
